Values of other authors in patent US20070265281A1, “Organic Compounds and Their Uses” (priority 2006, published 2007).

Test system: HCV
Conditions: ribavirin alone

Q: For `NC(=O)c1ncn([C@@H]2O[C@H](CO)[C@@H](O)[C@H]2O)n1` [Ribavirin, 1-β-D-ribofuranosyl-1-1,2,4-triazole-3-caroxamide], which “serum levels of HCV-RNA” value (patients) is on record?
A: does not lower

Q: What about the “patients in whom serum amino transferase levels are reduced to normal” value of the same compound?
A: 40%
